One series has as its system NFATC2 dephosphorylation. Kind of series: NFAT mobility shifting assay in Jurkat T cells. The class given is cell-based. Conditions: HA-mCherry-tagged peptides, PMA and ionomycin 2 h, n = 7.
The test system of series [1] is calcineurin (CNA) phosphatase activity. The series is described as follows: Calcineurin cellular activity assay in Jurkat T cells. Conditions: HA-mCherry-tagged peptides, PMA and ionomycin. The class given is cell-based. The procedure: We measured calcineurin phosphatase activity in vitro using a calcineurin phosphatase assay kit (BML-AK804, Enzo Life Sciences, Farmingdale, NY, USA). We incubated GST or GST-tagged peptides with CNA for 30 min at room temperature and then followed the manufacturer’s instructions. To measure endogenous calcineurin phosphatase activity, we transiently transfected Jurkat T cells with CAG-HA-mCherry-peptides by electroporation. After 24 h, we pretreated the Jurkat T cells with FK506 for 1 h before activating them with PMA and ionomycin. Next, we washed the cells with TBS buffer (20 mM Tris, pH 7.2, 150 mM NaCl), resuspended them with lysis buffer from the calcineurin cellular activity assay kit (BML-AK816, Enzo Life Sciences), and kept them on ice for 30 min. We collected the lysate supernatant and removed free phosphate by gel filtration using the Desalting Column Resin included in the kit. Next, we followed the manufacturer’s instructions.
Jurkat T cells expressing only HA-mCherry were used as a negative control, and cells treated with FK506 were used as a positive control. d In vitro calcineurin phosphatase activity assays using purified GST-tagged peptides. Purified GST was used as a negative control. […] Statistical differences were determined using one-way ANOVA. *p < 0.05, NS nonsignificant, NC negative control.

Details of series [2]: method as in PMID 24319282. Conditions: ref [17]; cited from earlier work. The text has this: FK506 and cyclosporin A, respectively cooperating with FKBP12 or cyclophilin, spatially hinder the substrates’ access to the active site of calcineurin, inhibiting its phosphatase activity[30],[31].
Another series relates to ERK2. The series is described as follows: In vitro kinase assay, ERK2. The class given is biochemical. The note with it: GST-tagged peptide, 1 h, 30 °C, 50 μM ATP. The procedure: (§1) We used the purified GST-tagged peptides for the in vitro kinase assays with activated recombinant kinases obtained from Proqinase GmbH (Freiburg, Germany). We performed the kinase assays in reaction buffer (50 mM HEPES-NaOH, pH 7.5, 3 mM MgCl2, 3 mM MnCl2, 3 μM sodium orthovanadate, 1 mM dithiothreitol, 50 μM unlabeled ATP, 5 μCi ^32P-γ-ATP) for 1 h at 30 °C. We stopped the reaction by adding 5× sample buffer and separated the proteins using SDS-PAGE. The gel was stained with Coomassie Brilliant Blue, dried, and developed on X-ray film.
(§2) The phosphorylated threonine of the immunoprecipitated peptide with HA antibody was detected with [PXpTP] antibody. b In vitro kinase assays using purified GST-tagged CABIN1 peptide and PKC downstream kinases. c In vitro kinase assays using purified GST-tagged peptides and kinases included in the MAPK family. d Immunoprecipitation assays using Flag-MAPKs and HA-CABIN1 in HEK293T cells. e, f In vitro kinase assays using p38α and substituted CABIN1 peptides. g Jurkat T cells expressing HA-mCherry-tagged CABIN1 peptide were treated with 10 μM p38α inhibitors for 16 h. Immunoprecipitation was performed with HA antibody and detected by western blotting. h Phosphorylated threonine and peptide-bound CNA of g were measured using ImageJ, and the ratio of phosphorylation and calcineurin binding to the CABIN1 peptide was calculated (n = 6). […]

The subject of the next series is JNK1. Kind of series: In vitro kinase assay, JNK1. The class given is biochemical. The note with it: GST-tagged peptide, 1 h, 30 °C, 50 μM ATP. The procedure: as §1, §2
Series [3] deals with CNA (calcineurin catalytic subunit). The series is described as follows: In vitro peptide competition assay (GST-tagged peptide / His6-tagged CNA). The class given is binding. The note with it: competitor CABIN1-L-1; molar ratio GST-peptide to competitor 1:50 to 1:400.
Series [4] in a line: Protein stability of HA-mCherry-VIVIT peptides in Jurkat T cells (western blot, FACS). The note with it: mCherry-tagged, vs VIVIT 15-mer. It is filed as cell-based.
Procedure: We quantified the expression of mCherry-tagged VIVIT peptides using LSRII (SORP) (Becton Dickinson, Franklin Lakes, NJ, USA). We analyzed the results with FlowJo (Tree Star, Inc., Ashland, OR, USA).
Protein expression l evels of VIVIT peptides were detected with HA antibody in Jurkat T cells expressing HA-mCherry -VIVIT peptides. c mCherry expression intensity and distribution
cells/sample) d mRNA expression level of mCherry was measured by qRT -PCR. (n=4) Values shown are the mean ± standard deviation. SE, short exposure, LE, long expo sure, NC, negative
Another series has as its system MKK4. Kind of series: In vitro kinase assay, MKK4. It is filed as biochemical. Conditions: GST-tagged peptide, 1 h, 30 °C, 50 μM ATP. How it is done: as §1, §2
In series [5] the test system is CABIN1 peptide threonine 9 phosphorylation. The series is described as follows: Phosphorylation of threonine 9 of the expressed peptide in Jurkat T cells (PXpTP western blot, LC-MS/MS). The class given is cell-based. Conditions: HA-mCherry-tagged peptide; western blot (PXpTP antibody) and LC-MS/MS. From the text: We lysed the cells in IP150 buffer and immunoprecipitated Flag- and HA-tagged proteins with Anti-FLAG ® M2 Affinity Gel (Sigma–Aldrich) and Pierce™ Anti-HA Agarose (Thermo Fisher Scientific), respectively. The composition of the buffer and the subsequent process was described previously. To quantify the western blot results, we measured the band areas using ImageJ (https://imagej.nih.gov/ij/).
We purified HA-mCherry-tagged CABIN1-L-1-2 peptides expressed in Jurkat T cells by immunoprecipitating 4 mg of lysates with Pierce™ Anti-HA Agarose. We eluted the bead-bound proteins by competition with 1 mg/ml HA peptide. After separation by SDS-PAGE and staining with Coomassie Brilliant Blue, we analyzed the purified proteins by LC-MS/MS (ProteomeTech, Inc., Seoul, Korea).
(§3) RU response units, NC negative control.
The phosphorylated threonine of the immunoprecipitated peptide with HA antibody was detected with [PXpTP] antibody. b In vitro kinase assays using purified GST-tagged CABIN1 peptide and PKC downstream kinases. c In vitro kinase assays using purified GST-tagged peptides and kinases included in the MAPK family. d Immunoprecipitation assays using Flag-MAPKs and HA-CABIN1 in HEK293T cells. e, f In vitro kinase assays using p38α and substituted CABIN1 peptides. g Jurkat T cells expressing HA-mCherry-tagged CABIN1 peptide were treated with 10 μM p38α inhibitors for 16 h. Immunoprecipitation was performed with HA antibody and detected by western blotting. h Phosphorylated threonine and peptide-bound CNA of g were measured using ImageJ, and the ratio of phosphorylation and calcineurin binding to the CABIN1 peptide was calculated (n = 6). […] Statistical differences were determined using one-way ANOVA. *p < 0.05, **p < 0.01, ***p < 0.001, CBB Coomassie Brilliant Blue, NC negative control.

Series [6] relates to CNAβ2 (calcineurin catalytic subunit). Kind of series: Mammalian two-hybrid assay (VP16 AD-CNAβ2 and GAL4 DBD-peptides, pG5-luc) in HEK293T cells. It is filed as cell-based. How it is done: (§4) To measure the transcriptional activity of NFAT, we cotransfected Jurkat T cells with GST-tagged peptides and NFAT-luc by electroporation. After 24 h, we pretreated the cells with 0.5 μM FK506 for 1 h and then treated them with 40 nM PMA and 1 μM ionomycin for 8 h. For the mammalian two-hybrid assay, we cotransfected HEK293T cells with GAL4 DBD-tagged CABIN1, VIVIT, chimeric and substituted peptides, VP16 activation domain-tagged CNAβ2, and pG5-luc (luciferase reporter plasmid containing the GAL4-responsive promoter) for 24 h. We lysed the harvested cells with a luciferase assay lysis buffer (17 mM KH2PO4, 183 mM K2HPO4, pH 7.8, 0.2% [v/v] Triton X-100) and sonicated them briefly. We measured luciferase activity for each cell lysate using an Infinite M200 (Tecan, Männedorf, Switzerland). In addition, we confirmed the expression level of the transfected proteins by Western blotting.
A mammalian two-hybrid assay using these peptides was performed (bottom). The compositions of the transfected DNA are described in Supplementary Fig. 1a–c. All experiments were repeated three times and are presented as the mean ± standard deviation. […] SE short exposure, LE long exposure, NC negative control, WT wild-type.
NC negative control, WT wild-type.

Series [7] relates to NFAT transcriptional activity. Kind of series: NFAT-luc luciferase reporter assay in Jurkat T cells. The class given is cell-based. The note with it: GST-tagged peptides, 40 nM PMA and 1 μM ionomycin 8 h. The procedure: as §4, §3
(1 picture or pasted object on this page, not shown here)

In the next series the test system is p38α. The series is described as follows: In vitro kinase assay, p38α. The class given is biochemical. The note with it: GST-tagged peptide, 1 h, 30 °C, 50 μM ATP. The procedure:
as §1, §2

No end group written: not given here.

Procedure for NFATC2 dephosphorylation: Jurkat T cells expressing GST-tagged peptides were treated with PMA and ionomycin for activation. […] For dephosphorylation of NFATC2, Jurkat T cells were treated with PMA and ionomycin for 2 h. c Hyper- and hypophosphorylated NFATC2 of b was measured using ImageJ, and the hypo/hyper ratio was calculated (n = 7). d Snapshot images of the activated Jurkat T cells expressing the indicated peptides and tNFATC2 were obtained using confocal microscopy. The expression and localization of peptides and tNFATC2 are shown as mCherry (red) and EGFP (green), respectively. Nuclei were stained with Hoechst (blue). Scale bar, 50 μm e Nuclear-localized tNFATC2 was measured by calculating the colocalization ratio between Hoechst (M1) and EGFP (M2). […] Statistical differences were determined using a two-tailed Student’s t-test (a, c) or one-way ANOVA (e). ***p < 0.001, NC negative control.

For the compound `C=CC[C@@H]1/C=C(\C)C[C@H](C)C[C@H](OC)[C@H]2O[C@@](O)(C(=O)C(=O)N3CCCC[C@H]3C(=O)O[C@H](/C(C)=C/[C@@H]3CC[C@@H](O)[C@H](OC)C3)[C@H](C)[C@@H](O)CC1=O)[C@H](C)C[C@@H]2OC` [FK506, reference compound], the “NFATC2 dephosphorylation / band shift” value in the series with NFATC2 dephosphorylation is on record as “inhibited the NFATC2 band shift”. In addition, the “calcineurin phosphatase activity in cells” value in [1] is “decreased the phosphatase activity of CNA”. Besides, the side effects result in [2] is “nephrotoxicity, fibrogenesis, neurotoxicity, and diabetes”.

With “CABIN1-L-1-2: 10 amino acids from proline 2146 to proline 2155 of full-length CABIN1; expressed GST-, GAL4 DBD- or HA-mCherry-tagged (PEITVTPPTP; also: expressed GST-, GAL4 DBD- or HA-mCherry-tagged, end not given here)”, the “phosphorylation by ERK2” value with ERK2 is given as “phosphorylated”. Also, the “phosphorylation by JNK1” value in the series with JNK1 is “phosphorylated”. In series [3], the “interference with interaction between GST-tagged VIVIT peptide and His6-tagged CNA” value was “dose-dependently interfered with the interaction”. Also, the “stability under physiological conditions vs full-length VIVIT peptide (15-mer)” value in series [4] is “more stable than the full-length VIVIT peptide (15-mer)”. Besides, the “phosphorylation by MKK4” value in the series on MKK4 was “directly phosphorylate”. Further, the “threonine 9 phosphorylation in Jurkat T cells” value in series [5] was “observed threonine 9 phosphorylation”. In the series with NFATC2 dephosphorylation, the “NFATC2 dephosphorylation / band shift” value is “significantly inhibited the NFATC2 band shift”. Also, the “calcineurin phosphatase activity in cells” value in series [1] is “did not”. Also, in series [6] (CNAβ2, 24 h, repeated three times), the “interaction with / binding affinity to CNA (mammalian two-hybrid)” value was “still bound to CNA”. Also, the “interaction with CNA, effect of 1 μM ionomycin” value in series [6] (with or without 1 μM ionomycin) is given as “did not affect the interaction”. Also, the NFAT luciferase activity result in series [7] (n = 3) is listed as “repressed luciferase activity compared with the negative control”. In series [7] (n = 3, vs VIVIT peptide), the “inhibitory effect on NFAT luciferase relative to VIVIT peptide” value is reported as “approximately four times stronger than that of the VIVIT peptide”. In addition, the “phosphorylation by p38α” value with p38α is given as “phosphorylated”.

The values above are taken from article PMC9166766 (Experimental & Molecular Medicine, 2022).
